In one test the target is T1, SGK1 (Homo sapiens, UniProt O00141).
T1 sequence (O00141 1-431): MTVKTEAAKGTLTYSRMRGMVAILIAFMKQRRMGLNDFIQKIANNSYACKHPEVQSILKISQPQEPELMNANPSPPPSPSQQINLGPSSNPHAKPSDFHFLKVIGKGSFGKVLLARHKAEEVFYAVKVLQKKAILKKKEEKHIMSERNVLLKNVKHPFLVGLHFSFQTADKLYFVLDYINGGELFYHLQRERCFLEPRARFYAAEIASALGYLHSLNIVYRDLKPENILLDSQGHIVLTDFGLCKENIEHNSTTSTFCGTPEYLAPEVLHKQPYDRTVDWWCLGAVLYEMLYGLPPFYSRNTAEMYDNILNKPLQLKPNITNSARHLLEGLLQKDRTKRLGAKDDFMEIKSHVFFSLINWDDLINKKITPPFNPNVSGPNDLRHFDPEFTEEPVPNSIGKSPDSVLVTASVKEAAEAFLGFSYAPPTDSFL
In words: Mass spectrometry-based SGK1 kinase inhibitory assay (LC/MS of phosphorylated […]). The conditions noted are these: for reduction in SGK1 inhibitory activity, absence of -OH at C-8: compared with HBT. The format is biochemical. From the text: To identify active compounds with SGK1 inhibitory activity from Ext.R, a novel mass‐spectrometry based kinase inhibitory assay was developed. A polypeptide sequence ([…], m/z: 618.6) derived from glycogen Synthase Kinase‐3(GSK3), a known substrate of SGK1, was optimized and synthesized. We subsequently used liquid chromatography coupled with mass spectrometry (LC/MS) to detect and quantify its phosphorylation level ([…](p)FAE, m/z:658.7) (Figure 3A).^[ [26] ^] Basal level SGK1 was supplemented to each well, and the peak area of phosphorylation was measured in the presence or absence of testing compounds. […] After investigating the major chemical constituents in Ext.R (Table S3, Supporting Information), a set of compounds in Ext.R were subsequently screened for their impacts on SGK1 activity. […] The direct interaction between HBT and SGK1 was further verified by temperature‐ and dose‐dependent cellular thermal shift assays (Figure 3E,F). We further performed a direct binding assay of HBT to SGK1 by KINOMEscan assay (Eurofins Discovery).
Synthesis of […] was prepared by Shanghai Sangong Biotech. In order to ensure the phosphorylation reaction of SGK1, SGK1 (0.25 µg mL^−1) was added to kinase buffer (25 mmol Tris [pH 7.5], 5 mmol β‐glycerolphosphate, 2 mmol DTT, 10 mmol MgCl2) with the substrate peptide […] (25 µmol) and ATP (200 µmol) and incubated for 1 h at 30 °C in the presence or absence of inhibitors. A concentration‐dependent assay for SGK1 at different concentrations (0.05, 0.1, 0.2, 0.25, and 0.3 µg mL^−1) was performed. Reactions were terminated by the addition of methyl alcohol with 0.1% trifluoroacetic acid (TFA), and supernatants were analyzed by the Agilent 1100 LC system (Agilent Technologies, USA) and a 1946D single quadrupole mass spectrometer. The acquisition parameters for LC/MS were set for positive ionization mode and selected ion monitoring (SIM) m/z values of 618.6 and 658.7 for the substrate peptide and product peptide respectively. Chromatographic separation was performed by a reversed‐phase ZORBAX SB‐C18 analytical column. The mobile phase included water containing 0.1% v/v TFA (A) and acetonitrile containing 0.1% v/v TFA (B). The flow rate was 0.6 mL min^−1. A gradient program was carried out according to the following profile: 0 min, 13% B; 15 min, 28% B; 16 min, 100% B. The constituents of Ext.R were screened by the assay to evaluate their inhibitory effects on SGK1 activity. A minimum of three replicates of each sample were analyzed and averaged together. Inhibition of SGK1 was calculated by the following equation (1) Inhibitionrate%=PC−PS/PC P C and P S represented the peak area of product peptide in the control group without test compounds and the tested sample group with various test compounds, respectively.

Test [1] deals with SGK1-dependent phosphorylation of NDRG1. Also on record: method as in PMID 21865856. As to conditions: cited from earlier work.
Where [2] appears, read: MS-based kinase inhibitory assay.

Take `O=c1c(O)c(-c2ccc(O)cc2)oc2cc(O)cc(O)c12` [A1]: the “reduction in SGK1 inhibitory activity, absence of -OH at C-8” value at SGK1 is reported as “greater than 10 fold”. On SGK1 (in figure, n = 3), this molecule had an IC50 of 11.3 µM. In the case of `O=c1c(O)c(-c2ccc(O)cc2)oc2c(O)c(O)ccc12` [A2, 3,7,8‐trihydroxy‐2‐(4‐hydroxyphenyl) chromen‐4‐one], at SGK1 (setting [2]), the midpoint of inhibition, the IC50, lay at 0.307 µM.

As for `O=c1cc(-c2ccc(O)cc2)oc2c(O)c(O)cc(O)c12` [A3], at SGK1, the “reduction in SGK1 inhibitory activity, absence of -OH at C-3” value is listed as “significant reduction”. As for `O=c1c(O)c(-c2ccc(O)cc2)oc2cc(O)ccc12` [A4], the “reduction in SGK1 inhibitory activity, absence of -OH at C-8” value at SGK1 is on record as “greater than 10 fold”. For the same molecule, 11.6 µM corresponded to half-maximal inhibition at SGK1 (in figure, n = 3) (IC50). For `O=c1cc(-c2ccc(O)cc2)oc2c(O)c(O)ccc12` [A5], the “reduction in SGK1 inhibitory activity, absence of -OH at C-3” value at SGK1 is on record as “significant reduction”. For the molecule `CCc1c(C(=O)NNC(=O)C(O)c2cc(F)cc(F)c2)ccc(O)c1C` (stereo not drawn) [EMD638683, reference compound], the half-inhibitory concentration (IC50) in test [1] was 3.35 µM. For `O=C(O)/C=C/c1ccc(O)cc1` [p-coumaric acid], half-maximal inhibition against SGK1 (setting [2]) (IC50) required 8.04 µM.

By IC50 is commonly meant the concentration needed to halve the response being measured.
